Experimental data reported in the NIST ThermoML archive (doi:10.1021/acs.jced.5b00367).
Where “and” joins values, the source holds several entries; their conditions need not be identical. Equal entries are not always repeated.

Test: wn = mass fraction of the nth substance listed
Details: 101 kPa, Liquid, Alternating current cell with electrodes, w2 = 0.01

CCCCCCCCCCCC[N+](C)(C)C.[Br-] [dodecyltrimethylammonium bromide] + O
Details	electrical conductivity
279.15 K	0.186 S/m
279.25 K	0.186 S/m
279.35 K	0.186 S/m
279.45 K	0.186 S/m
279.55 K	0.186 S/m
279.65 K	0.186 S/m
279.85 K	0.186 S/m
279.95 K	0.186 S/m
280.05 K	0.186 S/m
280.15 K	0.186 S/m
280.25 K	0.186 S/m
280.35 K	0.186 S/m
280.45 K	0.186 S/m
280.55 K	0.186 S/m
280.65 K	0.186 S/m
280.75 K	0.185 S/m
280.85 K	0.185 S/m
280.95 K	0.185 S/m
281.05 K	0.185 S/m
281.15 K	0.185 S/m
281.25 K	0.185 S/m
281.35 K	0.185 S/m
281.45 K	0.185 S/m
281.55 K	0.185 S/m
281.65 K	0.185 S/m
281.85 K	0.185 S/m
281.95 K	0.185 S/m
282.05 K	0.185 S/m
282.15 K	0.185 S/m
282.25 K	0.185 S/m
282.35 K	0.184 S/m
282.45 K	0.184 S/m
282.55 K	0.184 S/m
282.65 K	0.184 S/m
282.75 K	0.184 S/m
282.85 K	0.184 S/m
282.95 K	0.184 S/m
283.05 K	0.184 S/m
283.15 K	0.184 S/m
283.25 K	0.184 S/m
283.35 K	0.184 S/m
283.45 K	0.184 S/m
283.55 K	0.184 S/m
283.65 K	0.184 S/m
283.75 K	0.184 S/m
283.85 K	0.184 S/m
283.95 K	0.184 S/m
284.05 K	0.183 S/m and 0.184 S/m
284.15 K	0.184 S/m
284.25 K	0.183 S/m
284.35 K	0.183 S/m
284.45 K	0.183 S/m
284.55 K	0.183 S/m
284.65 K	0.183 S/m
284.75 K	0.183 S/m
284.85 K	0.183 S/m
284.95 K	0.183 S/m
285.05 K	0.183 S/m
285.15 K	0.183 S/m
288.05 K	0.182 S/m
288.15 K	0.182 S/m
288.25 K	0.182 S/m
288.35 K	0.182 S/m
288.45 K	0.182 S/m
288.55 K	0.182 S/m
288.65 K	0.182 S/m
288.75 K	0.182 S/m
288.85 K	0.182 S/m
288.95 K	0.182 S/m
289.85 K	0.183 S/m
289.95 K	0.183 S/m
290.05 K	0.183 S/m
290.15 K	0.183 S/m
290.25 K	0.183 S/m
290.35 K	0.183 S/m
290.45 K	0.183 S/m
290.55 K	0.183 S/m
290.65 K	0.183 S/m
290.75 K	0.183 S/m
290.85 K	0.183 S/m
290.95 K	0.183 S/m
291.05 K	0.183 S/m
291.15 K	0.183 S/m
291.25 K	0.183 S/m
291.35 K	0.183 S/m
291.45 K	0.183 S/m
291.55 K	0.183 S/m
291.65 K	0.183 S/m
291.75 K	0.183 S/m
291.85 K	0.183 S/m
292.15 K	0.183 S/m
292.25 K	0.183 S/m
292.65 K	0.183 S/m
292.75 K	0.183 S/m
292.85 K	0.183 S/m
292.95 K	0.184 S/m
293.05 K	0.184 S/m
293.15 K	0.184 S/m
293.25 K	0.184 S/m
294.25 K	0.184 S/m
294.35 K	0.184 S/m
294.45 K	0.184 S/m
294.55 K	0.184 S/m
294.75 K	0.184 S/m
294.85 K	0.185 S/m
294.95 K	0.185 S/m
295.15 K	0.185 S/m
295.25 K	0.185 S/m
295.45 K	0.185 S/m
295.65 K	0.185 S/m
295.75 K	0.185 S/m
296.05 K	0.185 S/m
296.15 K	0.185 S/m
296.55 K	0.185 S/m
296.85 K	0.186 S/m
297.05 K	0.186 S/m
297.25 K	0.186 S/m
297.45 K	0.186 S/m
297.65 K	0.186 S/m
297.85 K	0.186 S/m
298.15 K	0.186 S/m
298.65 K	0.187 S/m
298.85 K	0.187 S/m
299.05 K	0.187 S/m
299.25 K	0.188 S/m
299.55 K	0.188 S/m
299.75 K	0.188 S/m
299.85 K	0.188 S/m
300.05 K	0.188 S/m
300.25 K	0.188 S/m
300.45 K	0.188 S/m
300.75 K	0.189 S/m
301.05 K	0.189 S/m
301.55 K	0.189 S/m
301.75 K	0.189 S/m
301.95 K	0.19 S/m
302.25 K	0.19 S/m
302.55 K	0.19 S/m
302.75 K	0.19 S/m
302.95 K	0.191 S/m
303.25 K	0.191 S/m
303.65 K	0.191 S/m
303.85 K	0.191 S/m
304.15 K	0.192 S/m
305.45 K	0.193 S/m
306.15 K	0.194 S/m
306.45 K	0.194 S/m
306.75 K	0.194 S/m
307.05 K	0.195 S/m
307.85 K	0.195 S/m
308.15 K	0.196 S/m
308.45 K	0.196 S/m
308.75 K	0.196 S/m
309.35 K	0.197 S/m
309.55 K	0.197 S/m
309.85 K	0.198 S/m
310.05 K	0.198 S/m
310.35 K	0.199 S/m
310.65 K	0.199 S/m
310.95 K	0.199 S/m
311.35 K	0.199 S/m
